Measurements reported in patent publication US20170190671A1, “BIS(ARYL)CATECHOL DERIVATIVES AS HERBICIDES” (E I DU PONT DE NEMOURS AND COMPANY, priority 2014, published 2017).

Experiments:
Assay type in all cases: in vivo
[1] = tested on: Italian ryegrass (Lolium multiflorum); assay: Test A preemergence; settings: Lolium multiflorum, pre-emergence, 240 h, 0 to 100 scale (0 no effect, 100 complete control), read-out: Ryegrass, Italian plant response rating; for pest or weed control at 31 g/ha: 31 g ai/ha; for pest or weed control at 125 g/ha: 125 g ai/ha
Summary of the method: (§1)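 Greenhouse pot test, loam/sand soil. Formulation: non-phytotoxic solvent mix plus surfactant. Pre: directed spray onto soil after sowing. Post: plants at 1–2 leaf, 2–10 cm. Rated visually vs untreated controls at ~10 d, 0 (no effect) to 100 (complete control).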

[2] = tested on: pigweed (Amaranthus retroflexus); assay: Test A preemergence; settings: Amaranthus retroflexus, pre-emergence, 240 h, 0 to 100 scale (0 no effect, 100 complete control), read-out: Pigweed plant response rating; for pest or weed control at 31 g/ha: 31 g ai/ha; for pest or weed control at 125 g/ha: 125 g ai/ha
Summary of the method: as §1

[3] = tested on: barnyardgrass (Echinochloa crus-galli); assay: Test A preemergence; settings: Echinochloa crus-galli, pre-emergence, 240 h, 0 to 100 scale (0 no effect, 100 complete control), read-out: Barnyardgrass plant response rating; for pest or weed control at 31 g/ha: 31 g ai/ha; for pest or weed control at 125 g/ha: 125 g ai/ha
Summary of the method: as §1

[4] = tested on: ragweed (common ragweed, Ambrosia elatior); assay: Test A preemergence; settings: Ambrosia artemisiifolia, pre-emergence, 240 h, 0 to 100 scale (0 no effect, 100 complete control), read-out: Ragweed plant response rating; for pest or weed control at 31 g/ha: 31 g ai/ha; for pest or weed control at 125 g/ha: 125 g ai/ha
Summary of the method: as §1

[5] = tested on: giant foxtail (Setaria faberii); assay: Test A preemergence; settings: Setaria faberi, pre-emergence, 240 h, 0 to 100 scale (0 no effect, 100 complete control), read-out: Foxtail, Giant plant response rating; for pest or weed control at 31 g/ha: 31 g ai/ha; for pest or weed control at 125 g/ha: 125 g ai/ha
Summary of the method: as §1

kochia (Kochia scoparia) [6] = assay: Test A preemergence; settings: Bassia scoparia, pre-emergence, 240 h, 0 to 100 scale (0 no effect, 100 complete control), read-out: Kochia plant response rating; for pest or weed control at 31 g/ha: 31 g ai/ha; for pest or weed control at 125 g/ha: 125 g ai/ha
Summary of the method: as §1

[7] = tested on: galium (catchweed bedstraw, Galium aparine); assay: Test A postemergence; settings: Galium, post-emergence, 240 h, 0 to 100 scale, read-out: Plant response rating, Galium; for pest or weed control at 31 g/ha: 31 g ai/ha; for pest or weed control at 125 g/ha: 125 g ai/ha
Summary of the method: as §1

corn (Zea mays) = assay: Test A postemergence; settings: Zea mays, post-emergence, 240 h, 0 to 100 scale; for Corn plant response rating (crop injury, 0 = no effect, 100 = complete kill) at 31 g/ha: 31 g ai/ha; for Corn plant response rating (crop injury, 0 = no effect, 100 = complete kill) at 125 g/ha: 125 g ai/ha
Summary of the method: as §1

[8] = tested on: Italian ryegrass (Lolium multiflorum); assay: Test A postemergence; settings: Lolium multiflorum, post-emergence, 240 h, 0 to 100 scale, read-out: Plant response rating, Ryegrass, Italian; for pest or weed control at 31 g/ha: 31 g ai/ha; for pest or weed control at 125 g/ha: 125 g ai/ha
Summary of the method: as §1

[9] = tested on: wheat (Triticum aestivum); assay: Test A postemergence; settings: Triticum aestivum, post-emergence, 240 h, 0 to 100 scale, read-out: Plant response rating, Wheat; for plant injury at 31 g/ha: 31 g ai/ha; for plant injury at 125 g/ha: 125 g ai/ha
Summary of the method: as §1

[10] = tested on: blackgrass (Alopecurus myosuroides); assay: Test A postemergence; settings: Alopecurus myosuroides, post-emergence, 240 h, 0 to 100 scale, read-out: Plant response rating, Blackgrass; for pest or weed control at 31 g/ha: 31 g ai/ha; for pest or weed control at 125 g/ha: 125 g ai/ha
Summary of the method: as §1

[11] = tested on: pigweed (Amaranthus retroflexus); assay: Test A postemergence; settings: Amaranthus retroflexus, post-emergence, 240 h, 0 to 100 scale, read-out: Plant response rating, Pigweed; for pest or weed control at 31 g/ha: 31 g ai/ha; for pest or weed control at 125 g/ha: 125 g ai/ha
Summary of the method: as §1

[12] = tested on: barnyardgrass (Echinochloa crus-galli); assay: Test A postemergence; settings: Echinochloa crus-galli, post-emergence, 240 h, 0 to 100 scale, read-out: Plant response rating, Barnyardgrass; for pest or weed control at 31 g/ha: 31 g ai/ha; for pest or weed control at 125 g/ha: 125 g ai/ha
Summary of the method: as §1

[13] = tested on: ragweed (common ragweed, Ambrosia elatior); assay: Test A postemergence; settings: Ambrosia artemisiifolia, post-emergence, 240 h, 0 to 100 scale, read-out: Plant response rating, Ragweed; for pest or weed control at 31 g/ha: 31 g ai/ha; for pest or weed control at 125 g/ha: 125 g ai/ha
Summary of the method: as §1

[14] = tested on: giant foxtail (Setaria faberii); assay: Test A postemergence; settings: Setaria faberi, post-emergence, 240 h, 0 to 100 scale, read-out: Plant response rating, Foxtail, Giant; for pest or weed control at 31 g/ha: 31 g ai/ha; for pest or weed control at 125 g/ha: 125 g ai/ha
Summary of the method: as §1

kochia (Kochia scoparia) [15] = assay: Test A postemergence; settings: Bassia scoparia, post-emergence, 240 h, 0 to 100 scale, read-out: Plant response rating, Kochia; for pest or weed control at 31 g/ha: 31 g ai/ha; for pest or weed control at 125 g/ha: 125 g ai/ha
Summary of the method: as §1

rice (Oryza sativa) = assay: Test B flooded paddy; settings: Oryza sativa, 336 h; 250 g ai/ha, Flood, 13 to 15 days, scale 0 (no effect) to 100 (complete control); read-out: Plant response rating, Rice
Summary of the method: (§2)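 Under a constant 3 cm flood, test compounds went directly into the paddy water. Following 13 to 15 days of greenhouse growth, treated species and controls were compared by eye.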

[16] = tested on: sedge, umbrella (small-flower umbrella sedge, Cyperus difformis); assay: Test B flooded paddy; settings: Cyperus difformis, 336 h; 250 g ai/ha, Flood, 13 to 15 days, scale 0 (no effect) to 100 (complete control); read-out: Plant response rating, Sedge, Umbrella
Summary of the method: as §2

[17] = tested on: barnyardgrass (Echinochloa crus-galli); assay: Test B flooded paddy; settings: Echinochloa crus-galli, 336 h; 250 g ai/ha, Flood, 13 to 15 days, scale 0 (no effect) to 100 (complete control); read-out: Plant response rating, Barnyardgrass
Summary of the method: as §2

[18] = tested on: ducksalad (Heteranthera limosa); assay: Test B flooded paddy; settings: Heteranthera limosa, 336 h; 250 g ai/ha, Flood, 13 to 15 days, scale 0 (no effect) to 100 (complete control); read-out: Plant response rating, Ducksalad
Summary of the method: as §2

Row | SMILES | pest or weed control at 31 g/ha [1] | pest or weed control at 125 g/ha [1] | pest or weed control at 31 g/ha [2] | pest or weed control at 125 g/ha [2] | pest or weed control at 31 g/ha [3] | pest or weed control at 125 g/ha [3] | pest or weed control at 31 g/ha [4] | pest or weed control at 125 g/ha [4] | pest or weed control at 31 g/ha [5] | pest or weed control at 125 g/ha [5] | pest or weed control at 31 g/ha (kochia (Kochia scoparia) [6]) | pest or weed control at 125 g/ha (kochia (Kochia scoparia) [6]) | pest or weed control at 31 g/ha [7] | pest or weed control at 125 g/ha [7] | Corn plant response rating (crop injury, 0 = no effect, 100 = complete kill) at 31 g/ha (corn (Zea mays)) | Corn plant response rating (crop injury, 0 = no effect, 100 = complete kill) at 125 g/ha (corn (Zea mays)) | pest or weed control at 31 g/ha [8] | pest or weed control at 125 g/ha [8] | plant injury at 31 g/ha [9] | plant injury at 125 g/ha [9] | further results
1 | N#Cc1cccc(Oc2ncc(Cl)cn2)c1Oc1cccc(Cl)c1 [Compound 37] | 0% | 0% | 0% | 0% | 0% | 0% | 0% | 0% | 0% | 0% | 0% | 0% | 0% | 0% | 0% | 0% | 0% | 0% | 0% | 0% | pest or weed control at 31 g/ha [10]: 0%; pest or weed control at 125 g/ha [10]: 0%; pest or weed control at 31 g/ha [11]: 0%; pest or weed control at 125 g/ha [11]: 0%; pest or weed control at 31 g/ha [12]: 0%; pest or weed control at 125 g/ha [12]: 0%; pest or weed control at 31 g/ha [13]: 0%; pest or weed control at 125 g/ha [13]: 0%; pest or weed control at 31 g/ha [14]: 0%; pest or weed control at 125 g/ha [14]: 0%; pest or weed control at 31 g/ha (kochia (Kochia scoparia) [15]): 0%; pest or weed control at 125 g/ha (kochia (Kochia scoparia) [15]): 0%; plant injury at 250 g/ha (rice (Oryza sativa)): 0%; pest or weed control at 250 g/ha [16]: 0%; pest or weed control at 250 g/ha [17]: 0%; pest or weed control at 250 g/ha [18]: 0%
2 | N#Cc1cccc(Oc2ncc(Cl)cn2)c1Oc1ccccc1Cl [Compound 40] | 0% | 0% | 0% | 0% | 0% | 0% | 0% | 0% | 0% | 0% | 0% | 0% | 0% | 10% | 0% | 0% | 0% | 0% | 0% | 0% | pest or weed control at 31 g/ha [10]: 0%; pest or weed control at 125 g/ha [10]: 0%; pest or weed control at 31 g/ha [11]: 0%; pest or weed control at 125 g/ha [11]: 30%; pest or weed control at 31 g/ha [12]: 0%; pest or weed control at 125 g/ha [12]: 0%; pest or weed control at 31 g/ha [13]: 0%; pest or weed control at 125 g/ha [13]: 0%; pest or weed control at 31 g/ha [14]: 0%; pest or weed control at 125 g/ha [14]: 0%; pest or weed control at 31 g/ha (kochia (Kochia scoparia) [15]): 0%; pest or weed control at 125 g/ha (kochia (Kochia scoparia) [15]): 0%; plant injury at 250 g/ha (rice (Oryza sativa)): 0%; pest or weed control at 250 g/ha [16]: 0%; pest or weed control at 250 g/ha [17]: 0%; pest or weed control at 250 g/ha [18]: 0%
3 | FC(F)c1cccc(Oc2ncc(Br)cn2)c1Oc1ncc(Cl)cn1 [Compound 41] | 0% | 30% | 100% | 100% | 20% | 80% | 0% | 60% | 100% | 100% | 70% | 100% | 60% | 80% | 10% | 50% | 30% | 60% | 0% | 20% | pest or weed control at 31 g/ha [10]: 40%; pest or weed control at 125 g/ha [10]: 80%; pest or weed control at 31 g/ha [11]: 100%; pest or weed control at 125 g/ha [11]: 100%; pest or weed control at 31 g/ha [12]: 40%; pest or weed control at 125 g/ha [12]: 80%; pest or weed control at 31 g/ha [13]: 30%; pest or weed control at 125 g/ha [13]: 50%; pest or weed control at 31 g/ha [14]: 30%; pest or weed control at 125 g/ha [14]: 90%; pest or weed control at 31 g/ha (kochia (Kochia scoparia) [15]): 50%; pest or weed control at 125 g/ha (kochia (Kochia scoparia) [15]): 90%; plant injury at 250 g/ha (rice (Oryza sativa)): 0%; pest or weed control at 250 g/ha [16]: 40%; pest or weed control at 250 g/ha [17]: 0%; pest or weed control at 250 g/ha [18]: 30%
